Assay results: patent publication US20250243427A1, “PRECURSORS OF PHENOLIC FRAGRANT COMPOUNDS” (GIVAUDAN SA, priority 2021, published 2025)

Assay: Washtest and sensory evaluation of fabric washed with liquid detergent
Conditions: Table 2 (position of double bond); liquid detergent washtest, wet fabric; scale 0 (odorless) to 5 (extremely strong)
Procedure: The wet and line-dried fabric (1 and 4 days) was assessed by a panel of 4-6 experts with regard to odor intensity and quality. The odor intensity was recorded on an intensity scale of 0 (odorless) to 5 (extremely strong).
The odour intensity was recorded on an intensity scale of 0 (odorless) to 5 (extremely strong).
Liquid detergent samples were prepared and used in washtests and subsequent sensory evaluation of the washed and dried fabric as described in Example 45a and c. The odor intensity was recorded on an intensity scale of 0 (odorless) to 5 (extremely strong).
In the case of C=CCCCOc1ccc(C=O)cc1OCC [Example 53, 3-ethoxy-4-(pent-4-en-1-yloxy)benzaldehyde, reference compound], the “odour intensity, wet” value is reported as 1.5. With CCC/C=C/COc1ccc(C=O)cc1OCC [Example 54, (E)-3-ethoxy-4-(hex-2-en-1-yloxy)benzaldehyde, reference compound] the “odour intensity, wet” value was 1.2.

Same assay, conditions: Table 2; liquid detergent washtest, dry fabric 1 day; scale 0 to 5
With C=CCCCOc1ccc(C=O)cc1OCC [Example 53, 3-ethoxy-4-(pent-4-en-1-yloxy)benzaldehyde, reference compound] the “odour intensity, 1 day” value was 1.3. In the case of CCC/C=C/COc1ccc(C=O)cc1OCC [Example 54, (E)-3-ethoxy-4-(hex-2-en-1-yloxy)benzaldehyde, reference compound], the “odour intensity, 1 day” value is reported as 1.8.

Same assay, conditions: Table 2; liquid detergent washtest, dry fabric 4 days; scale 0 to 5
In the case of C=CCCCOc1ccc(C=O)cc1OCC [Example 53, 3-ethoxy-4-(pent-4-en-1-yloxy)benzaldehyde, reference compound], the “odour intensity, 4 days” value is reported as 1.2. In the case of CCC/C=C/COc1ccc(C=O)cc1OCC [Example 54, (E)-3-ethoxy-4-(hex-2-en-1-yloxy)benzaldehyde, reference compound], the “odour intensity, 4 days” value is reported as 1.4.

Assay: Odor description on paper blotter
Conditions: 1% solution in EtOH on paper blotter, 24 h
In the case of CC/C=C\CC(C)Oc1ccc(C=O)cc1OCC (stereo not drawn) [Example 4, (Z)-3-ethoxy-4-(hept-4-en-2-yloxy)benzaldehyde], the Odor description is reported as “sweet (brown sugar) powdery (vanillin, chocolate, ice cream)”. In the case of CCc1ccc(OCCC=C(C)C)cc1 [Example 42, 1-ethyl-4-((4-methylpent-3-en-1-yl)oxy)benzene], the Odor description is reported as “animalic, leathery, phenolic, paracresol”. With C=C(C)CCOc1ccc(CCC(C)=O)cc1 [Example 16, 4-(4-((3-methylbut-3-en-1-yl)oxy)phenyl)butan-2-one] the Odor description was “fruity (raspberry) sweet”. With CC/C=C\CCOc1ccccc1C(=O)CC [Example 46, (Z)-1-(2-(hex-3-en-1-yloxy)phenyl)propan-1-one] the Odor description was “green, wintergreen”. In the case of C=CCC(C=CC)Oc1ccc(CCC(C)=O)cc1 (stereo not drawn) [Example 26, 4-(4-(hepta-1,5-dien-4-yloxy)phenyl)butan-2-one], the Odor description is reported as “sweet (icing sugar cristal) raspberry”. For CCCC/C=C\CCOc1ccc(C=O)cc1OCC [Example 17, (Z)-3-ethoxy-4-(oct-3-en-1-yloxy)benzaldehyde], the Odor description was “vanilla (powdery, spicy, creamy)”. With CC/C=C\CCOc1ccc(COC)cc1OCC [Example 49, (Z)-2-ethoxy-1-(hex-3-en-1-yloxy)-4-(methoxymethyl)benzene] the Odor description was “spicy (eugenol, smokey), powdery (vanilla)”. In the case of CCOc1cc(C=O)ccc1OCC/C=C/C(C)C [Example 32, (E)-3-ethoxy-4-((5-methylhex-3-en-1-yl)oxy)benzaldehyde], the Odor description is reported as “powdery, vanilla, green, hazelnut, chocolate”. In the case of CCOc1cc(C=O)ccc1OCCC=CC(=O)OC [Example 60, methyl 5-(2-ethoxy-4-formylphenoxy)pent-2-enoate], the Odor description is reported as “sweet powdery gourmand, vanilla, coffee, creamy, vanilla, milky”. For CC/C=C\CCOc1cc(C)cc(OC)c1 [Example 41, (Z)-1-(hex-3-en-1-yloxy)-3-methoxy-5-methylbenzene], the Odor description was “green, bell pepper”. In the case of CC/C=C/CCOc1ccc(C=O)cc1OCC [Example 2, (E)-3-ethoxy-4-(hex-3-en-1-yloxy)benzaldehyde], the Odor description is reported as “powdery (vanilla, creamy) slightly fruity (raspberry, strawberry)”. In the case of CCOc1cc(C=O)ccc1OCCC=C(C)CC [Example 40, 3-ethoxy-4-((4-methylhex-3-en-1-yl)oxy)benzaldehyde], the Odor description is reported as “powdery, vanilla, creamy, chocolate, slightly butyric”. For CC/C=C\CCOc1ccc(COCC)cc1OCC [Example 48, (Z)-2-ethoxy-4-(ethoxymethyl)-1-(hex-3-en-1-yloxy)benzene], the Odor description was “spicy (eugenol, smokey), powdery (vanilla)”. In the case of CC/C=C\CCOc1ccc(C=NOC)cc1OCC [Example 47, 3-ethoxy-4-(((Z)-hex-3-en-1-yl)oxy)benzaldehyde O-methyl oxime], the Odor description is reported as “vanilla (sweet, gourmand, carnation floral, chestnut cream)”. In the case of CCC(C)=CCCOc1ccc(CCC(C)=O)cc1 [Example 36, 4-(4-((4-methylhex-3-en-1-yl)oxy)phenyl)butan-2-one], the Odor description is reported as “fruity, raspberry, sweet, powdery”. In the case of C=CCC(CC=C)Oc1ccc(CCC(C)=O)cc1 [Example 23, 4-(4-(hepta-1,6-dien-4-yloxy)phenyl)butan-2-one], the Odor description is reported as “fruity (raspberry)”. In the case of COc1cc(C=O)ccc1OCCC=C(C)C [Example 37, 3-methoxy-4-((4-methylpent-3-en-1-yl)oxy)benzaldehyde], the Odor description is reported as “powdery, vanilla, creamy”. In the case of “3-ethoxy-4-((4-methylhepta-3,6-dien-1-yl)oxy)benzaldehyde and 3-ethoxy-4-((4-methylhepta-3,5-dien-1-yl)oxy)benzaldehyde [Example 29]”, the Odor description is reported as “powdery (vanilla) sweet (sugary)”. In the case of CC(C)=CCCOc1ccc(C)cc1 [Example 44, 1-methyl-4-((4-methylpent-3-en-1-yl)oxy)benzene], the Odor description is reported as “animalic, leathery, phenolic, paracresol”. With COC(=O)c1c(C)cc(OCCC=C(C)C)c(C)c1O [Example 62, methyl 2-hydroxy-3,6-dimethyl-4-((4-methylpent-3-en-1-yl)oxy)benzoate] the Odor description was “mossy (evernyl)”. With C=CCCOc1cc(C)c(C(=O)OC)c(O)c1C [Example 14, methyl 4-(but-3-en-1-yloxy)-2-hydroxy-3,6-dimethylbenzoate] the Odor description was “slightly mossy”. With CCOc1cc(C=O)ccc1OC1CC=CCC1 (stereo not drawn) [Example 51, 4-(cyclohex-3-en-1-yloxy)-3-ethoxybenzaldehyde] the Odor description was “powdery (vanilla)”. With CC/C=C/CCOc1ccc(CCC(C)=O)cc1 [Example 7, (E)-4-(4-(hex-3-en-1-yloxy)phenyl)butan-2-one] the Odor description was “raspberry”. For C=CCC(C=C(C)C)Oc1ccc(C=O)cc1OCC (stereo not drawn) [Example 24, 3-ethoxy-4-((6-methylhepta-1,5-dien-4-yl)oxy)benzaldehyde], the Odor description was “powdery (creamy, vanilla)”. With COc1cc(C)cc(OCCC=C(C)C)c1 [Example 43, 1-methoxy-3-methyl-5-((4-methylpent-3-en-1-yl)oxy)benzene] the Odor description was “animalic, leathery, phenolic, paracresol, green, hay, rooty”. In the case of CC/C=C\CCOc1ccc(COC(C)C)cc1OCC [Example 50, (Z)-2-ethoxy-1-(hex-3-en-1-yloxy)-4-(isopropoxymethyl)benzene], the Odor description is reported as “spicy (eugenol, smokey), powdery (vanilla), green”. For CC/C=C\CC(C)Oc1ccc(CCC(C)=O)cc1 (stereo not drawn) [Example 5, (Z)-4-(4-(hept-4-en-2-yloxy)phenyl)butan-2-one], the Odor description was “raspberry (fruity, ripe, fresh)”. In the case of C=CCC(CCC)Oc1ccc(CCC(C)=O)cc1 (stereo not drawn) [Example 21, 4-(4-(hept-1-en-4-yloxy)phenyl)butan-2-one], the Odor description is reported as “raspberry”. In the case of C=C(C)CCOc1ccc(C=O)cc1OCC [Example 15, 3-ethoxy-4-((3-methylbut-3-en-1-yl)oxy)benzaldehyde], the Odor description is reported as “mild, powdery, spicy”. In the case of C=CCC(C)(C)Oc1ccc(C=O)cc1OCC [Example 28, 3-ethoxy-4-((2-methylpent-4-en-2-yl)oxy)benzaldehyde], the Odor description is reported as “powdery (vanilla)”. With CCOc1cc(C=O)ccc1OCCC=CCCOc1ccc(C=O)cc1OCC [Example 52, 4,4′-(hex-3-ene-1,6-diylbis(oxy))bis(3-ethoxybenzaldehyde)] the Odor description was “powdery (vanilla)”. For “(Z)-2-ethoxy-1-(hex-3-en-1-yloxy)-4-methylbenzene and (Z)-1-ethoxy-2-(hex-3-en-1-yloxy)-4-methylbenzene [Example 35]”, the Odor description was “spicy, eugenol, clove, phenolic, vanilla, medicinal”. With CC/C=C\CCOc1ccccc1OCC [Example 39, (Z)-1-ethoxy-2-(hex-3-en-1-yloxy)benzene] the Odor description was “medicinal, phenolic, vanilla”. In the case of CCCc1cccc(OCCC=C(C)C)c1 [Example 45, 1-((4-methylpent-3-en-1-yl)oxy)-3-propylbenzene], the Odor description is reported as “animalic, leathery, phenolic, paracresol, green, hay, rooty”. In the case of C=CCC(C=C(C)C)Oc1ccc(CCC(C)=O)cc1 (stereo not drawn) [Example 27, 4-(4-((6-methylhepta-1,5-dien-4-yl)oxy)phenyl)butan-2-one], the Odor description is reported as “fruity (powdery, sweet, raspberry)”. For C=CCC(Oc1ccc(C=O)cc1OCC)C(=O)OCC (stereo not drawn) [Example 61, ethyl 2-(2-ethoxy-4-formylphenoxy)pent-4-enoate], the Odor description was “sweet powdery gourmand (vanilla, coffee) creamy (vanilla, milky)”. In the case of CC=CCCOc1cc(C)c(C(=O)OC)c(O)c1C [Example 63, methyl 2-hydroxy-3,6-dimethyl-4-(pent-3-en-1-yloxy)benzoate], the Odor description is reported as “mossy, evernyl, dry powdery”. With CCOc1cc(C=O)ccc1OCCC=CCC(C)C [Example 31, 3-ethoxy-4-((6-methylhept-3-en-1-yl)oxy)benzaldehyde] the Odor description was “powdery, vanilla, green, hazelnut, chocolate”. In the case of C=CCC(CC=C)Oc1ccc(C=O)cc1OCC [Example 22, 3-ethoxy-4-(hepta-1,6-dien-4-yloxy)benzaldehyde], the Odor description is reported as “powdery (creamy, vanilla)”. For C=CCCOc1ccc(C=O)cc1OCC [Example 12, 4-(but-3-en-1-yloxy)-3-ethoxybenzaldehyde], the Odor description was “powdery (vanilla, creamy, dough)”. In the case of C=CCC(CCC)Oc1ccc(C=O)cc1OCC (stereo not drawn) [Example 19, 3-ethoxy-4-(hept-1-en-4-yloxy)benzaldehyde], the Odor description is reported as “powdery (dry, vanilla) fruity (metallic)”. With CCCC(C)=CCCOc1ccc(C=O)cc1OC [Example 38, 3-methoxy-4-((4-methylhept-3-en-1-yl)oxy)benzaldehyde] the Odor description was “powdery, vanilla, chocolate”. In the case of C=CCCOc1ccc(CC=C)cc1OC [Example 13, 4-allyl-1-(but-3-en-1-yloxy)-2-methoxybenzene], the Odor description is reported as “slightly spicy (iso eugenol) fruity (berry)”. With CCC=CCCOc1cc(C)ccc1C(C)C [Example 30, 2-(hex-3-en-1-yloxy)-1-isopropyl-4-methylbenzene] the Odor description was “aromatic, thymol, menthol”. For C=CCC(CC)Oc1ccc(CCC(C)=O)cc1 (stereo not drawn) [Example 25, 4-(4-(hex-5-en-3-yloxy)phenyl)butan-2-one], the Odor description was “sweet (icing sugar cristal) raspberry”.
